Test results taken from PMC8161398, “Targeting Lactate Dehydrogenase A with Catechin Resensitizes SNU620/5FU Gastric Cancer Cells to 5-Fluorouracil” (International Journal of Molecular Sciences, 2021).

What was measured:
[1] = target: T1, lactate dehydrogenase A (LDHA) (Homo sapiens, UniProt P00338); experiment: LDHA activity assay (NADH fluorescence), dose-dependent; type: biochemical
T1 construct: purified recombinant LDHA

[2] = target: T2, lactate dehydrogenase B (LDHB) (Homo sapiens, UniProt P07195); experiment: LDHB activity assay (NADH fluorescence), dose-dependent; type: biochemical
T2 construct: purified recombinant LDHB
T2 sequence (P07195 2-334): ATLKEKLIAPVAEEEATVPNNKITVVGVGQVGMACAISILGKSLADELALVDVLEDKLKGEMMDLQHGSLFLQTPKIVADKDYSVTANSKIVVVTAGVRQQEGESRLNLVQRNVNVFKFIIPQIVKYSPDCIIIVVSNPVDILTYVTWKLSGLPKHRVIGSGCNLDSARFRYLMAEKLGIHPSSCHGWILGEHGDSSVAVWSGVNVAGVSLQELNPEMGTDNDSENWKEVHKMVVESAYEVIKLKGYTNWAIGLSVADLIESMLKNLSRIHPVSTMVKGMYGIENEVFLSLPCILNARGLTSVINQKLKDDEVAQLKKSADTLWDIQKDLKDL

[3] = target: T1, lactate dehydrogenase A (LDHA); experiment: ITC; also purified LDHA activity assay by NADH fluorescence (IC50 =[…]); type: binding

SMILES | LDHA activity assay (NADH fluorescence), dose-dependent [1] | LDHB activity assay (NADH fluorescence), dose-dependent [2] | Kd [3] [µM]
O=C(O[C@@H]1Cc2c(O)cc(O)cc2O[C@@H]1c1cc(O)c(O)c(O)c1)c1cc(O)c(O)c(O)c1 [EGCG, epigallocatechin-3-gallate] | LDHA and LDHB activities were measured with EGCG, which is known to inhibit LDHA activity | exert inhibitory effects on both LDHA and LDHB activities | 
Oc1cc(O)c2c(c1)OC(c1ccc(O)c(O)c1)C(O)C2 (stereo not drawn) [CA, Catechin] |  |  | 197
